Test results published in patent US11180504B2 (ORCHID PHARMA LTD., priority 2016, dated 2021).
≈ marks a conversion by molar mass, not a printed value.

What was measured:
[1] = tested on: carbapenem sensitive Escherichia coli; assay: MIC by broth micro-dilution (CLSI), carbapenem sensitive E. coli; format: cell-based; conditions: Escherichia coli, ATCC25922, ESBL −ve E. coli ATCC25922; read-out: MIC
[2] = tested on: methicillin-sensitive Staphylococcus aureus; assay: MIC by broth micro-dilution (CLSI), methicillin-sensitive S. aureus; format: cell-based; conditions: Staphylococcus aureus, ATCC 29213 / MSSA, MSSA S. aureus ATCC29213; read-out: MIC
[3] = tested on: carbapenem sensitive Pseudomonas aeruginosa; assay: MIC by broth micro-dilution (CLSI), carbapenem sensitive P. aeruginosa; format: cell-based; conditions: Pseudomonas aeruginosa, ATCC27853, Meropenem susceptible P. aeruginosa ATCC27853; read-out: MIC
[4] = tested on: carbapenemase producing K. pneumoniae; assay: MIC by broth micro-dilution (CLSI), carbapenemase producing K. pneumoniae; format: cell-based, Klebsiella pneumoniae; conditions: Klebsiella pneumoniae, ATCCBAA1705, KPC-2 K. pneumoniae ATCC BAA-1705; read-out: MIC

Row | Structure (SMILES) | MIC [1] | MIC [2] | MIC [3] | MIC [4]
1 | CNCC(=O)N[C@H](C)[C@H]1C(=O)N2C(C(=O)O)=C(SC[C@H](N)C(=O)N3CC[C@@H](N)C3)[C@H](C)[C@H]12 [Example 273] | 16 µg/mL (≈ 34.1 µM) | 128 µg/mL (≈ 273 µM) | 128 µg/mL (≈ 273 µM) | 32 µg/mL (≈ 68.3 µM)
2 | CCCCN[C@H](C)[C@H]1C(=O)N2C(C(=O)O)=C(S[C@@H]3CN[C@H](C(=O)N(C)C)C3)[C@H](C)[C@H]12 [Example 274] | 16 µg/mL (≈ 36.5 µM) | 32 µg/mL (≈ 73 µM) | > 128 µg/mL | 16 µg/mL (≈ 36.5 µM)
3 | CNCC(=O)N[C@H](C)[C@H]1C(=O)N2C(C(=O)O)=C(S[C@@H]3CN[C@H](C(=O)N4CCC(N)(Cc5ccccc5)CC4)C3)[C@H](C)[C@H]12 [Example 275] | 16 µg/mL (≈ 26.7 µM) | 64 µg/mL (≈ 107 µM) | > 128 µg/mL | 64 µg/mL (≈ 107 µM)
4 | CNCC(=O)N[C@H](C)[C@H]1C(=O)N2C(C(=O)O)=C(S[C@@H]3CN[C@H](C(=O)N4CCC(N)(C(N)=O)CC4)C3)[C@H](C)[C@H]12 [Example 277] | 2 µg/mL (≈ 3.63 µM) | 64 µg/mL (≈ 116 µM) | 16 µg/mL (≈ 29 µM) | 4 µg/mL (≈ 7.25 µM)
5 | CNCC(=O)N[C@H](C)[C@H]1C(=O)N2C(C(=O)O)=C(S[C@@H]3CN[C@H](C(=O)N4CCC(C)(N)CC4)C3)[C@H](C)[C@H]12 [Example 278] | 2 µg/mL (≈ 3.83 µM) | 16 µg/mL (≈ 30.6 µM) | 4 µg/mL (≈ 7.65 µM) | 2 µg/mL (≈ 3.83 µM)
6 | CNCC(=O)N[C@H](C)[C@H]1C(=O)N2C(C(=O)O)=C(S[C@@H]3CN[C@H](C(=O)NC4CCOCC4)C3)[C@H](C)[C@H]12 [Example 279] | 4 µg/mL (≈ 7.85 µM) | > 128 µg/mL | > 128 µg/mL | 16 µg/mL (≈ 31.4 µM)
7 | C[C@@H](NC(=O)[C@@H]1CS(=O)(=O)CN1)[C@H]1C(=O)N2C(C(=O)O)=C(S[C@@H]3CN[C@H](C(=O)N4CC[C@@H](N)C4)C3)[C@H](C)[C@H]12 [Example 280] | 8 µg/mL (≈ 14 µM) | 64 µg/mL (≈ 112 µM) | 16 µg/mL (≈ 28 µM) | 8 µg/mL (≈ 14 µM)
8 | C[C@@H](NC(=O)[C@@H]1CS(=O)(=O)CN1)[C@H]1C(=O)N2C(C(=O)O)=C(S[C@@H]3CN[C@H](CNS(N)(=O)=O)C3)[C@H](C)[C@H]12 [Example 281] | 8 µg/mL (≈ 14.1 µM) | 32 µg/mL (≈ 56.5 µM) | 64 µg/mL (≈ 113 µM) | 16 µg/mL (≈ 28.2 µM)
9 | CNCC(=O)N[C@H](C)[C@H]1C(=O)N2C(C(=O)O)=C(S[C@@H]3CN[C@H](CNC(=O)[C@@H]4C[C@H](F)CN4)C3)[C@H](C)[C@H]12 [Example 282] | 1 µg/mL (≈ 1.9 µM) | 32 µg/mL (≈ 60.8 µM) | 32 µg/mL (≈ 60.8 µM) | 2 µg/mL (≈ 3.8 µM)
10 | C[C@@H](NC(=O)Cn1cnnn1)[C@H]1C(=O)N2C(C(=O)O)=C(S[C@@H]3CN[C@H](C(=O)N(C)C)C3)[C@H](C)[C@H]12 [Example 283] | 0.25 µg/mL (≈ 0.508 µM) | 16 µg/mL (≈ 32.5 µM) | 8 µg/mL (≈ 16.2 µM) | 0.5 µg/mL (≈ 1.02 µM)
11 | C[C@@H](NC(=O)[C@H]1CS(=O)(=O)CN1)[C@H]1C(=O)N2C(C(=O)O)=C(S[C@@H]3CN[C@H](C(=O)N(C)C)C3)[C@H](C)[C@H]12 [Example 284] | 1 µg/mL (≈ 1.89 µM) | 1 µg/mL (≈ 1.89 µM) | 64 µg/mL (≈ 121 µM) | 4 µg/mL (≈ 7.55 µM)
12 | C[C@@H](NC(=O)[C@H]1CNCCN1)[C@H]1C(=O)N2C(C(=O)O)=C(S[C@@H]3CN[C@H](C(=O)N(C)C)C3)[C@H](C)[C@H]12 [Example 285] | 4 µg/mL (≈ 8.09 µM) | 64 µg/mL (≈ 129 µM) | 128 µg/mL (≈ 259 µM) | 8 µg/mL (≈ 16.2 µM)
13 | CNCC(=O)N[C@H](C)[C@H]1C(=O)N2C(C(=O)O)=C(S[C@@H]3CN[C@H](C(=O)N4C[C@@H](N)C[C@H]4C)C3)[C@H](C)[C@H]12 [Example 287] | 4 µg/mL (≈ 7.86 µM) | 128 µg/mL (≈ 252 µM) | 16 µg/mL (≈ 31.5 µM) | 8 µg/mL (≈ 15.7 µM)
14 | CNCC(=O)N[C@H](C)[C@H]1C(=O)N2C(C(=O)O)=C(S[C@@H]3CN[C@H](C(=O)N4C[C@H](N)C[C@H]4c4ccccc4)C3)[C@H](C)[C@H]12 [Example 288] | 4 µg/mL (≈ 7.01 µM) | 128 µg/mL (≈ 224 µM) | > 128 µg/mL | 16 µg/mL (≈ 28 µM)
15 | C[C@@H](NC(=O)C(F)F)[C@H]1C(=O)N2C(C(=O)O)=C(SC[C@@H]3CNCCN3)[C@H](C)[C@H]12 [Example 289] | 8 µg/mL (≈ 19.1 µM) | 8 µg/mL (≈ 19.1 µM) | > 128 µg/mL | 16 µg/mL (≈ 38.2 µM)
16 | CNCC(=O)N[C@H](C)[C@H]1C(=O)N2C(C(=O)O)=C(S[C@@H]3CN[C@H](C(=O)N4CC5CC4CN5)C3)[C@H](C)[C@H]12 (some centres unmarked) [Example 290] | 2 µg/mL (≈ 3.95 µM) | 32 µg/mL (≈ 63.2 µM) | 8 µg/mL (≈ 15.8 µM) | 4 µg/mL (≈ 7.9 µM)
17 | CNCC(=O)N[C@H](C)[C@H]1C(=O)N2C(C(=O)O)=C(S[C@@H]3CN[C@H](CNC(=O)[C@@H]4CSCN4)C3)[C@H](C)[C@H]12 [Example 291] | 2 µg/mL (≈ 3.8 µM) | 32 µg/mL (≈ 60.8 µM) | 8 µg/mL (≈ 15.2 µM) | 2 µg/mL (≈ 3.8 µM)
18 | CNCC(=O)N[C@H](C)[C@H]1C(=O)N2C(C(=O)O)=C(S[C@@H]3CN[C@H](C(=O)N4CC(C)(N)C4)C3)[C@H](C)[C@H]12 [Example 292] | 4 µg/mL (≈ 8.09 µM) | 128 µg/mL (≈ 259 µM) | 16 µg/mL (≈ 32.3 µM) | 8 µg/mL (≈ 16.2 µM)
19 | C[C@@H](NCC1CC1)[C@H]1C(=O)N2C(C(=O)O)=C(S[C@@H]3CN[C@H](C(=O)N(C)C)C3)[C@H](C)[C@H]12 [Example 293] | 32 µg/mL (≈ 73.3 µM) | 128 µg/mL (≈ 293 µM) | > 128 µg/mL | 128 µg/mL (≈ 293 µM)
20 | C[C@@H](NC(=O)Cn1cnnn1)[C@H]1C(=O)N2C(C(=O)O)=C(SC3CN(C4=NCCS4)C3)[C@H](C)[C@@H]12 [Example 294] | 0.06 µg/mL (≈ 0.122 µM) | 1 µg/mL (≈ 2.03 µM) | 16 µg/mL (≈ 32.5 µM) | 1 µg/mL (≈ 2.03 µM)
21 | CNCc1nnc(CC(=O)N[C@H](C)[C@H]2C(=O)N3C(C(=O)O)=C(S[C@@H]4CN[C@H](C(=O)N(C)C)C4)[C@H](C)[C@H]23)o1 [Example 295] | 2 µg/mL (≈ 3.73 µM) | 16 µg/mL (≈ 29.9 µM) | 64 µg/mL (≈ 119 µM) | 16 µg/mL (≈ 29.9 µM)
22 | C[C@@H](NC(=O)Cn1ccnn1)[C@H]1C(=O)N2C(C(=O)O)=C(S[C@@H]3CN[C@H](C(=O)N(C)C)C3)[C@H](C)[C@H]12 [Example 296] | 0.5 µg/mL (≈ 1.02 µM) | 4 µg/mL (≈ 8.14 µM) | 64 µg/mL (≈ 130 µM) | 2 µg/mL (≈ 4.07 µM)
23 | CNCC(=O)N[C@H](C)[C@H]1C(=O)N2C(C(=O)O)=C(S[C@@H]3CN[C@H](C(=O)N4C[C@@H](N)[C@H](O)C4)C3)[C@H](C)[C@H]12 [Example 297] | 1 µg/mL (≈ 1.96 µM) | 16 µg/mL (≈ 31.3 µM) | 4 µg/mL (≈ 7.83 µM) | 2 µg/mL (≈ 3.92 µM)
24 | C[C@@H](NC(=O)Cn1cnnn1)[C@H]1C(=O)N2C(C(=O)O)=C(S[C@@H]3CN[C@H](C(=O)N4CC[C@@H](N)C4)C3)[C@H](C)[C@H]12 [Example 298, (4R,5S,6R)-6-((R)-1-(2-(1H-tetrazol-1-yl)acetamido)ethyl)-3-((3S,5S)-5-((R)-3-aminopyrrolidine-1-carbonyl)pyrrolidin-3-ylthio)-4-methyl-7-oxo-1-azabicyclo[3.2.0]hept-2-ene-2-carboxylic acid] | 0.125 µg/mL (≈ 0.234 µM) | 1 µg/mL (≈ 1.87 µM) | 1 µg/mL (≈ 1.87 µM) | 1 µg/mL (≈ 1.87 µM)
25 | C[C@@H](NC(=O)CC(N)=O)[C@H]1C(=O)N2C(C(=O)O)=C(S[C@@H]3CN[C@H](C(=O)N4CC[C@@H](N)C4)C3)[C@H](C)[C@H]12 [Example 299, (4R,5S,6R)-6-((R) - 1-(3-amino-3-oxopropanamido)ethyl)-3-((3S,5S)-5-((R)-3-aminopyrrolidine-1-carbonyl)pyrrolidin-3-ylthio)-4-methyl-7-oxo-1-azabicyclo[3.2.0]hept-2-ene-2-carboxylic acid] | 4 µg/mL (≈ 7.86 µM) | 16 µg/mL (≈ 31.5 µM) | 16 µg/mL (≈ 31.5 µM) | 8 µg/mL (≈ 15.7 µM)
26 | C[C@@H](NC(=O)Cn1cncn1)[C@H]1C(=O)N2C(C(=O)O)=C(S[C@@H]3CN[C@H](C(=O)N(C)C)C3)[C@H](C)[C@H]12 [Example 300, (4R,5S,6R)-6-((R) - 1-(2-(1H-1,2,4-triazol-1-yl)acetamido)ethyl)-3-((3S,5S)-5-(dimethylcarbamoyl)pyrrolidin-3-ylthio)-4-methyl-7-oxo-1-azabicyclo[3.2.0]hept-2-ene-2-carboxylic acid] | 1 µg/mL (≈ 2.03 µM) | 16 µg/mL (≈ 32.5 µM) | 128 µg/mL (≈ 260 µM) | 4 µg/mL (≈ 8.14 µM)
27 | C[C@@H](NC(=O)Cc1nnn(C)n1)[C@H]1C(=O)N2C(C(=O)O)=C(S[C@@H]3CN[C@H](C(=O)N(C)C)C3)[C@H](C)[C@H]12 [Example 301, (4R,5S,6R)-3-((3S,5S)-5-(dimethylcarbamoyl)pyrrolidin-3-ylthio)-4-methyl-6-((R) - 1-(2-(2-methyl-2H-tetrazol-5-yl)acetamido)ethyl)-7-oxo-1-azabicyclo[3.2.0]hept-2-ene-2-carboxylic acid] | 4 µg/mL (≈ 7.9 µM) | 16 µg/mL (≈ 31.6 µM) | > 128 µg/mL | 64 µg/mL (≈ 126 µM)
28 | C[C@@H](NC(=O)Cc1nnn(C)n1)[C@H]1C(=O)N2C(C(=O)O)=C(S[C@@H]3CN[C@H](C(=O)N4CC[C@@H](N)C4)C3)[C@H](C)[C@H]12 [Example 302] | 1 µg/mL (≈ 1.83 µM) | 2 µg/mL (≈ 3.65 µM) | 128 µg/mL (≈ 234 µM) | 16 µg/mL (≈ 29.2 µM)
29 | C[C@@H](NC(=O)c1cnccn1)[C@H]1C(=O)N2C(C(=O)O)=C(S[C@@H]3CN[C@H](C(=O)N(C)C)C3)[C@H](C)[C@H]12 [Example 303, (4R,5S,6R)-3-((3S,5S)-5-(dimethylcarbamoyl)pyrrolidin-3-ylthio)-4-methyl-7-oxo-6-((R) - 1-(pyrazine-2-carboxamido)ethyl) - 1-azabicyclo[3.2.0]hept-2-ene-2-carboxylic acid] | 4 µg/mL (≈ 8.19 µM) | 2 µg/mL (≈ 4.09 µM) | > 128 µg/mL | 64 µg/mL (≈ 131 µM)
